Assay results reported in patent publication US20250099448A1, “HETEROCYCLIC COMPOUNDS” (Hoffmann-La Roche Inc., priority 2022, published 2025).

target: T1, MAGL protein (Homo sapiens, UniProt Q99685); test: 2-AG assay: MAGL inhibitory activity by hydrolysis of 2-arachidonoylglycerol to arachidonic acid, followed by mass spectrometry; assay type: biochemical; conditions: 8 μM 2-arachidonoylglycerol, 15 min preincubation, 30 min reaction at RT, RapidFire MS readout
T1 sequence (Q99685 1-303): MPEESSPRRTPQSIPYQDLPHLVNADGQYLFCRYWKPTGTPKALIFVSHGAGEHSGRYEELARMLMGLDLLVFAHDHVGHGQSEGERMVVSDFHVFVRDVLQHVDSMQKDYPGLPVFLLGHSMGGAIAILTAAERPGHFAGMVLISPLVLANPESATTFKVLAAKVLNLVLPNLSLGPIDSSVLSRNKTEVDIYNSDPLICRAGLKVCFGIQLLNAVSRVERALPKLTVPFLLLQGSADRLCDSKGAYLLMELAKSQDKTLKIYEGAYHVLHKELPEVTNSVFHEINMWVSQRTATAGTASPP
In short: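 Activity was measured by RapidFire SPE–triple-quad MS as the ratio of arachidonic acid to d8-arachidonic acid after 2-AG hydrolysis (8 μM substrate, 30 min, RT, acetonitrile quench). Compounds, tested from 12.5 μM down to […], were first preincubated 15 min with MAGL in TRIS/EDTA/Tween-20 buffer containing 2.5% DMSO.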

| IC50 [nM] | Compound |
| --- | --- |
| 3.63 | O=C(N1CC(c2ccc(N3CC(C(F)(F)F)C3)nc2)C1)N1CC2(CC(c3nnc(C4(O)CC4)[nH]3)C2)C1 [compound 259] |
| 9.21 | COC(=O)c1ccccc1CN1CC2(C1)CN(C(=O)N1CC3(CC(c4nnc(C5CC5)[nH]4)C3)C1)C2 [Example 171, methyl 2-[[2-[6-(5-cyclopropyl-4H-1,2,4-triazol-3-yl)-2-azaspiro[3.3]heptane-2-carbonyl]-2,6-diazaspiro[3.3]heptan-6-yl]methyl]benzoate] |
| 66.8 | O=C(N1CC(c2noc(C3(C(F)(F)F)CC3)n2)C1)N1CC2(CC(c3nnc(C4CC4)[nH]3)C2)C1 [compound 246] |
| 308 | Cc1c(CN2CC3(C2)CN(C(=O)N2CC4(CC(c5nnc(C6CC6)[nH]5)C4)C2)C3)cnn1C [compound 897] |
| 3.41 | CS(=O)(=O)c1ccc(C2CC3(C2)CN(C(=O)N2CC4(CC(c5nnc(C6CC6)[nH]5)C4)C2)C3)cc1 [compound 939] |
| 3.77 | O=C(N1CC2(CC(Cn3cc(OC(F)(F)F)ccc3=O)C2)C1)N1CC2(CC(c3nc(C4CC4)n[nH]3)C2)C1 [compound 757] |
| 33.9 | O=C(N1CC(c2ccc(C3(C(F)(F)F)CC3)cc2)C1)N1CC2(CC(c3nnc([C@@H](O)C(F)(F)F)[nH]3)C2)C1 (single isomer, unassigned) [compound 229] |
| 0.29 | O=C(N1CC2(CC(Cc3cc(C(F)(F)F)n[nH]3)C2)C1)N1CC2(CC(c3nc(C4CC4)n[nH]3)C2)C1 [compound 404] |
| 0.19 | Cc1cc(C2CC2)nn1-c1ccc(C2CN(C(=O)N3CC4(CC(c5nnc(C6CC6)[nH]5)C4)C3)C2)cc1 [compound 288] |
| 0.21 | O=C(N1CC2(CC(Cc3ccc(C(F)(F)F)cn3)C2)C1)N1CC2(CC(c3nnc(C4CC4)[nH]3)C2)C1 [compound 110] |
| 0.16 | O=C(N1CC2(CC(Cc3ccc4cnc(C(F)(F)F)n4c3)C2)C1)N1CC2(CC(c3nc(C4CC4)n[nH]3)C2)C1 [compound 992] |
| 0.35 | O=C(N1CC(c2ccc(N3CC[C@@H](C(F)(F)F)C3)nc2)C1)N1CC2(CC(c3nnc(C4CC4)[nH]3)C2)C1 [compound 268] |
| 1.92 | O=C(N1CC2(CC(c3nnc(C4CC4)[nH]3)C2)C1)N1CC2(C1)CN(S(=O)(=O)c1ccc(F)cc1C(F)(F)F)C2 [compound 98] |
| 3.7 | CC(C)S(=O)(=O)c1ccc(C2CN(C(=O)N3CC4(CC(c5nnc(C6CC6)[nH]5)C4)C3)C2)c(Cl)c1 [compound 247] |
| 554 | CC(C)(C)Cc1nnc(C23CC(C4CN(C(=O)N5CC6(CC(c7nc(C8COC8)n[nH]7)C6)C5)C4)(C2)C3)s1 [compound 800] |
| 0.23 | Cn1cc(CC2CC3(C2)CN(C(=O)N2CC4(CC(c5nc(C6CC6)n[nH]5)C4)C2)C3)c(C(F)(F)F)n1 [compound 770] |
| 0.48 | O=C(N1CC(c2cnc(C3CC4(CCC4)C3)cn2)C1)N1CC2(CC(c3nnc(C4CC4)[nH]3)C2)C1 [compound 286] |
| 15.2 | O=C(N1CC(OCc2ccc(C(F)(F)F)cc2F)C1)N1CC2(CC(c3nnc([C@H](O)C(F)(F)F)[nH]3)C2)C1 (single isomer, unassigned) [Example 389] |
| 0.09 | O=C(N1CC2(CC(c3nc(C4CC4)n[nH]3)C2)C1)N1CC2(CC[C@H](Cc3ccc(S(=O)(=O)C(F)(F)F)cc3)C2)C1 [compound 667] |
| 236 | O=C(N1CC2(CC(c3nnc(C4CC4)[nH]3)C2)C1)N1CC2(C1)CN(c1ncc(C(F)(F)F)cn1)C2 [compound 694] |
| 59.6 | COc1cc(C#N)ccc1COC1CCN(C(=O)N2CC3(CC(c4nnc(C5CC5)[nH]4)C3)C2)CC1 [Example 861] |

| IC50 [nM] | Compound |
| --- | --- |
| 1.3 | O=C(N1CC2(CC(Cc3ccc(S(=O)(=O)C4CC4)cc3)C2)C1)N1CC2(CC(c3nc(C4(O)CC4)n[nH]3)C2)C1 [compound 505] |
| 136 | Cn1nccc1CN1CC2(C1)CN(C(=O)N1CC3(CC(c4nc(C5CC5)n[nH]4)C3)C1)C2 [compound 901] |
| 8.88 | N=S(=O)(c1cccc(C(F)(F)F)c1)C1CCC2(CC1)CN(C(=O)N1CC3(CC(c4nc(C5CC5)n[nH]4)C3)C1)C2 (stereo not drawn) [Example 456] |
| 138 | O=C(N1CC2(CC(c3nnc(C4CC4)[nH]3)C2)C1)N1CC2(C1)CN(c1cncc(F)c1)C2 [compound 936] |
| 4.41 | O=C(N1CC2(CC(Cc3ncn(CC(F)(F)F)n3)C2)C1)N1CC2(CC(c3nc(C4CC4)n[nH]3)C2)C1 [compound 962] |
| 39.7 | O=C(N1CCC(COc2ccc(F)c(C(F)(F)F)c2)CC1)N1CC2(CC(c3nc(C4(O)CC4)n[nH]3)C2)C1 [Example 916, [4-[[4-fluoro-3-(trifluoromethyl)phenoxy]methyl]piperidino]-[6-[3-(1-hydroxycyclopropyl)-1H-1,2,4-triazol-5-yl]-2-azaspiro[3.3]heptan-2-yl]methanone] |
| 1.99 | CS(=O)(=O)c1ccc(OC2CCC3(C2)CN(C(=O)N2CC4(CC(c5nnc(C6CC6)[nH]5)C4)C2)C3)cc1C(F)(F)F (racemic) [compound 155] |
| 544 | O=C(N1CC2(CC(Cc3ccc(OC(F)(F)F)cn3)C2)C1)N1CC2(CC(c3ncn[nH]3)C2)C1 [compound 721] |
| 0.13 | O=C(N1CC2(CCC(Oc3cc(Cl)ccc3Cl)CC2)C1)N1CC2(CC(c3nnc(C4(O)CC4)[nH]3)C2)C1 [compound 346] |
| 0.99 | N#Cc1cc(CC2CC3(C2)CN(C(=O)N2CC4(CC(c5nnc(C6CC6)[nH]5)C4)C2)C3)cc(C(F)(F)F)n1 [compound 778] |
| 1500 | O=C(N1CC2(CC(c3nc(C4CC4)n[nH]3)C2)C1)N1CC2(CC(n3cnc(O)n3)C2)C1 [Example 648, [6-(3-cyclopropyl-1H-1,2,4-triazol-5-yl)-2-azaspiro[3.3]heptan-2-yl]-[6-(3-hydroxy-1,2,4-triazol-1-yl)-2-azaspiro[3.3]heptan-2-yl]methanone] |
| 2.8 | O=C(N1CC2(CC(CNC3(C(F)(F)F)CC3)C2)C1)N1CC2(CC(c3nnc(C4CC4)[nH]3)C2)C1 [compound 54] |
| 12.4 | O=C(N1CC(C23CC(c4nnc(C5(C(F)(F)F)CC5)s4)(C2)C3)C1)N1CC2(CC(c3nc(C4CC4)n[nH]3)C2)C1 [compound 557] |
| 1.25 | O=C(N1CC(c2ccc(NCC3(C(F)(F)F)CC3)nc2)C1)N1CC2(CC(c3nnc(C4(O)CC4)[nH]3)C2)C1 [compound 254] |
| 8.04 | O=C(N1CC(Oc2ccc(C(F)(F)F)c(C3CC3)c2)C1)N1CC2(CC(c3nnc(C4(O)CC4)[nH]3)C2)C1 [compound 319] |
| 1.42 | O=C(N1CC2(CC(Cc3c[nH]c(=O)c(C(F)F)c3)C2)C1)N1CC2(CC(c3nc(C4CC4)n[nH]3)C2)C1 [compound 954] |
| 8.71 | O=C(N1CC2(CCN(Cc3ccc(C(F)(F)F)nc3)CC2)C1)N1CC2(CC(c3nnc(C4CC4)[nH]3)C2)C1 [compound 176] |
| 0.43 | O=C(N1CC2(CC(Cc3ccc(F)cc3C(F)(F)F)C2)C1)N1CC2(CC(c3nc(C4COC4)n[nH]3)C2)C1 [compound 754] |
| 8.75 | O=C(N1CC2(CC(c3nc(C4CC4)n[nH]3)C2)C1)N1CC2(CN(Cc3cc(C(F)(F)F)[nH]n3)C2)C1 [compound 625] |
| 1.61 | O=C(N1CC2(CC(Cc3n[nH]c(C4(C(F)(F)F)CC4)n3)C2)C1)N1CC2(CC(c3nnc(C4CC4)[nH]3)C2)C1 [compound 816] |
| 1.65 | O=C(N1CC(C23CC(Oc4ccc(C(F)(F)F)cn4)(C2)C3)C1)N1CC2(CC(c3nc(C4CC4)n[nH]3)C2)C1 [compound 736] |
